# Measured values: US20230022724A1, “NOVEL IMIDAZOPYRAZINE DERIVATIVES” (Hoffmann-La Roche Inc., priority 2018, published 2023)
# Counter-ions that a name gives are not always drawn.
# Test system: Acinetobacter baumannii ATCC17978
# Experiment: Antimicrobial susceptibility testing: 90% growth inhibitory concentration (IC90) determination
# Format: cell-based
# Details: 90% growth inhibitory concentration, Acinetobacter baumannii ATCC17978, Iso-Sensitest broth, OD 600 nm over 16 h; formate salt; read-out: ATCC17978 IC90
# Procedure: The in vitro antimicrobial activity of the compounds was determined according to the following procedure:
# The assay used a 10-points Iso-Sensitest broth medium to measure quantitatively the in vitro activity of the compounds against Acinetobacter baumannii ATCC17978 and Acinetobacter baumannii ATCC17961.
# Stock compounds in DMSO were serially twofold diluted (e.g. range from 50 to 0.097 μM final concentration) in 384 wells microtiter plates and inoculated with 49 μl the bacterial suspension in Iso-Sensitest medium to have a final cell concentration of ˜5×10^(5) CFU/ml in a final volume/well of 50 ul/well. Microtiter plates were incubated at 35±2° C.
# Bacterial cell growth was determined with the measurement of optical density at λ=600 nm each 20 minutes over a time course of 16 h. Growth inhibition was calculated during the logarithmic growth of the bacterial cells with determination of the concentration inhibiting 50% (IC50) and 90% (IC90) of the growth.
# Table 1 provides the 90% growth inhibitory concentrations (IC90) in micromoles per liter of the compounds of present invention obtained against the strain Acinetobacter baumannii ATCC17978 and Acinetobacter baumannii ATCC17961.
row,Compound,IC90
1,"COc1ccc(-c2cnc3c(Nc4ccc(C(=O)N5CCC(C(=O)N6CCNC(C(=O)O)C6)CC5)c(Cl)c4)nccn23)cc1F (centres unmarked) [Example 2, 4-(1-(2-chloro-4-((3-(3-fluoro-4-methoxyphenyl)imidazo [1,2-a]pyrazin-8-yl)amino)benzoyl)piperidine-4-carbonyl) piperazine-2-carboxylic acid, formate salt]",470 nM

# Same assay, conditions: 90% growth inhibitory concentration, Acinetobacter baumannii ATCC17978, Iso-Sensitest broth, OD 600 nm over 16 h; hydrochloride; read-out: ATCC17978 IC90
row,Compound,IC90
1,"COc1ccc(-c2cnc3c(Nc4ccc(C(=O)N5CCC(C(=O)NCC6CNC6)CC5)c(Cl)c4)nccn23)cc1F [Example 54, N-(azetidin-3-ylmethyl)-1-[2-chloro-4-[[3-(3-fluoro-4-methoxyphenyl)imidazo[1,2-a]pyrazin-8-yl]amino]benzoyl]piperidine-4-carboxamide;hydrochloride]",130 nM

# Same assay, conditions: Acinetobacter baumannii, ATCC17978, 16 h, 90% growth inhibitory concentration, Acinetobacter baumannii ATCC17978, Iso-Sensitest broth, OD 600 nm over 16 h; read-out: ATCC17978 IC90
row,Compound,IC90
1,"C#CCOc1ccc(-c2cnc3c(Nc4ccc(C(=O)N5CCC(CN)CC5)c(Cl)c4)nccn23)c(F)c1F [Example 75, [4-(aminomethyl)piperidin-1-yl]-[2-chloro-4-[[3-(2,3-difluoro-4-prop-2-ynoxyphenyl)imidazo[1,2-a]pyrazin-8-yl]amino]phenyl]methanone]",85 nM
2,"N#CCOc1ccc(-c2cnc3c(Nc4ccc(C(=O)N5CCN(CCN6CCC[C@H]6C(=O)O)CC5)c(Cl)c4)nccn23)c(F)c1F [Example 104, (2-(4-(2-chloro-4-((3-(4-(cyanomethoxy)-2,3-difluorophenyl)imidazo[1,2-a]pyrazin-8-yl)amino)benzoyl)piperazin-1-yl)ethyl)proline trifluoroacetate]",630 nM
3,"CNCCNC(=O)C1CCN(C(=O)c2ccc(Nc3nccn4c(-c5ccc(OCC#N)c(F)c5F)cnc34)cc2Cl)CC1 [Example 32, 1-[2-chloro-4-[[3-[4-(cyanomethoxy)-2,3-difluoro-phenyl]imidazo[1,2-a]pyrazin-8-yl]amino]benzoyl]-N-[2-(methylamino)ethyl]piperidine-4-carboxamide trifluoroacetate]",300 nM
4,"N#CCOc1ccc(-c2cnc3c(Nc4ccc(C(=O)N5CCOCC5)c(Cl)c4)nccn23)c(F)c1F [Example 79, 2-[4-[8-[3-chloro-4-(morpholine-4-carbonyl)anilino]imidazo[1,2-a]pyrazin-3-yl]-2,3-difluorophenoxy]acetonitrile]",160 nM
5,"COc1ccc(-c2cnc3c(Nc4ccc(C(=O)N5CCN(CCN(C)C)CC5)c(Br)c4)nccn23)cc1F [Example 81, [2-bromo-4-[[3-(3-fluoro-4-methoxyphenyl)imidazo[1,2-a]pyrazin-8-yl]amino]phenyl]-[4-[2-(dimethylamino)ethyl]piperazin-1-yl]methanone;formic acid]",290 nM
6,"COc1ccc(-c2cnc3c(Nc4ccc(C(=O)N5CCN(Cc6cnc[nH]6)CC5)c(Cl)c4)nccn23)cc1F [Example 72, [2-chloro-4-[[3-(3-fluoro-4-methoxyphenyl)imidazo[1,2-a]pyrazin-8-yl]amino]phenyl]-[4-(1H-imidazol-5-ylmethyl)piperazin-1-yl]methanone]",510 nM
7,"N#CCOc1ccc(-c2cnc3c(Nc4ccc(C(=O)N5CCC(CN)CC5)c(Cl)c4)nccn23)c(F)c1F [Example 12, 2-(4-(8-((4-(4-(aminomethyl)piperidine-1-carbonyl)-3-chlorophenyl)amino)imidazo[1,2-a]pyrazin-3-yl)-2,3-difluorophenoxy)acetonitrile]",49 nM
8,"Cn1cnnc1C1CCN(C(=O)c2ccc(Nc3nccn4c(-c5ccc(OCC#N)c(F)c5F)cnc34)cc2Cl)CC1 [Example 23, 2-[4-[8-[3-chloro-4-[4-(4-methyl-1,2,4-triazol-3-yl)piperidine-1-carbonyl]anilino]imidazo[1,2-a]pyrazin-3-yl]-2,3-difluoro-phenoxy]acetonitrile; 2,2,2-trifluoroacetic acid]",160 nM
9,N#CCOc1ccc(-c2cnc3c(Nc4ccc(C(=O)N5CCN(CCN6CCC(C(N)=O)C6)CC5)c(Cl)c4)nccn23)c(F)c1F (centres unmarked) [Example 89],42 nM
10,"COc1ccc(-c2cnc3c(Nc4ccc(C(=O)N5CC5)c(Cl)c4)nccn23)c(F)c1F [Example 9, aziridin-1-yl(2-chloro-4-((3-(2,3-difluoro-4-methoxyphenyl)imidazo[1,2-a]pyrazin-8-yl)amino)phenyl)methanone]",1600 nM
11,"N#CCOc1ccc(-c2cnc3c(Nc4ccc(C(=O)N5CCC(C(=O)N6CCNCC6CO)CC5)c(Cl)c4)nccn23)c(Cl)c1F (centres unmarked) [Example 31, 2-[3-chloro-4-[8-[3-chloro-4-[4-[2-(hydroxymethyl)piperazine-1-carbonyl]piperidine-1-carbonyl]anilino]imidazo[1,2-a]pyrazin-3-yl]-2-fluoro-phenoxy]acetonitrile trifluoroacetate]",320 nM

# Same assay, conditions: Acinetobacter baumannii, ATCC17978, 16 h, read-out: ATCC17978 IC90
row,Compound,IC90
1,"CN(C)CC1CCN(C(=O)c2ccc(Nc3nccn4c(-c5ccc(OCC#N)c(F)c5Cl)cnc34)cc2Cl)CC1 [Example 6, 2-[3-chloro-4-[8-[3-chloro-4-[4-[(dimethylamino)methyl]piperidine-1-carbonyl]anilino]imidazo[1,2-a]pyrazin-3-yl]-2-fluoro-phenoxy]acetonitrile; formic acid]",110 nM
2,"N#CCOc1ccc(-c2cnc3c(Nc4ccc(C(=O)N5CCC(C(=O)N6CCN[C@H](CO)C6)CC5)c(Cl)c4)nccn23)c(Cl)c1F [Example 88, 2-[3-chloro-4-[8-[3-chloro-4-[4-[(3S)-3-(hydroxymethyl)piperazine-1-carbonyl]piperidine-1-carbonyl]anilino]imidazo[1,2-a]pyrazin-3-yl]-2-fluorophenoxy]acetonitrile; formic acid]",90 nM
3,"COc1ccc(-c2cnc3c(Nc4ccc(C(=O)N5CCN(C(=O)C(O)CN)CC5)c(Cl)c4)nccn23)cc1F (centres unmarked) [Example 56, 3-amino-1-[4-[2-chloro-4-[[3-(3-fluoro-4-methoxyphenyl)imidazo[1,2-a]pyrazin-8-yl]amino]benzoyl]piperazin-1-yl]-2-hydroxypropan-1-one; hydrochloride]",240 nM
4,"CNCCNC(=O)C1CCN(C(=O)c2ccc(Nc3nccn4c(-c5ccc(OC)c(F)c5)cnc34)cc2Cl)CC1 [Example 16, 1-(2-chloro-4-((3-(3-fluoro-4-methoxyphenyl)imidazo[1,2-a]pyrazin-8-yl)amino)benzoyl)-N-(2-(methylamino)ethyl)piperidine-4-carboxamide hydrochloride]",100 nM
5,"N#CCOc1ccc(-c2cnc3c(Nc4ccc(C(=O)N5CCC(C(=O)N6CCN[C@@H](C(=O)O)C6)CC5)c(Cl)c4)nccn23)c(F)c1F [Example 46, (R)-4-(1-(2-chloro-4-((3-(4-(cyanomethoxy)-2,3-difluorophenyl)imidazo[1,2-a]pyrazin-8-yl)amino)benzoyl)piperidine-4-carbonyl)piperazine-2-carboxylic Acid; Formic Acid]",890 nM
6,"CN(C)CC1CN(CCN2CCN(C(=O)c3ccc(Nc4nccn5c(-c6ccc(OCC#N)c(F)c6F)cnc45)cc3Cl)CC2)C1 [Example 99, 2-[4-[8-[3-chloro-4-[4-[2-[3-[(dimethylamino)methyl]azetidin-1-yl]ethyl]piperazine-1-carbonyl]anilino]imidazo[1,2-a]pyrazin-3-yl]-2,3-difluorophenoxy]acetonitrile; 2,2,2-trifluoroacetic acid]",170 nM
7,"N#CCOc1ccc(-c2cnc3c(Nc4ccc(C(=O)N5CCC(C(=O)N6CCN[C@@H](CO)C6)CC5)c(Cl)c4)nccn23)c(Cl)c1F [Example 86, 2-[3-chloro-4-[8-[3-chloro-4-[4-[(3R)-3-(hydroxymethyl)piperazine-1-carbonyl]piperidine-1-carbonyl]anilino]imidazo[1,2-a]pyrazin-3-yl]-2-fluorophenoxy]acetonitrile; formic acid]",49 nM
8,"CS(=O)(=O)C1CN(CCN2CCN(C(=O)c3ccc(Nc4nccn5c(-c6ccc(OCC#N)c(F)c6F)cnc45)cc3Cl)CC2)C1 [Example 98, 2-[4-[8-[3-chloro-4-[4-[2-(3-methylsulfonylazetidin-1-yl)ethyl]piperazine-1-carbonyl]anilino]imidazo[1,2-a]pyrazin-3-yl]-2,3-difluorophenoxy]acetonitrile; 2,2,2-trifluoroacetic acid]",140 nM
9,"CN(C)C1CCN(CCN2CCN(C(=O)c3ccc(Nc4nccn5c(-c6ccc(OCC#N)c(F)c6F)cnc45)cc3Cl)CC2)CC1 [Example 101, 2-[4-[8-[3-chloro-4-[4-[2-[4-(dimethylamino)piperidin-1-yl]ethyl]piperazine-1-carbonyl]anilino]imidazo[1,2-a]pyrazin-3-yl]-2,3-difluorophenoxy]acetonitrile; 2,2,2-trifluoroacetic acid]",170 nM
10,"CN(C)C1CN(CCN2CCN(C(=O)c3ccc(Nc4nccn5c(-c6ccc(OCC#N)c(F)c6F)cnc45)cc3Cl)CC2)C1 [Example 102, 2-[4-[8-[3-chloro-4-[4-[2-[3-(dimethylamino)azetidin-1-yl]ethyl]piperazine-1-carbonyl]anilino]imidazo[1,2-a]pyrazin-3-yl]-2,3-difluorophenoxy]acetonitrile; 2,2,2-trifluoroacetic acid]",170 nM
